# From patent US7815918B2, “Polypeptides and immunogenic conjugates capable of inducing antibodies against pathogens, and uses thereof” (priority 2003, dated 2010)
# “Also recorded” adds a separate entry of the source. Ends that are not written are not given here.
# What was measured:
# mAb 4F11(G1) [1] = test: Western blot of purified recombinant thioredoxin fusion proteins probed with mAb 4F11; type: binding, mouse; settings: for reactivity with mAb 4F11 in Western blot: purified thioredoxin fusion protein separated by SDS-PAGE
# Source text: MAb 4F11 was produced as described (Lee et al., “Molecular Characterization of KEX1, a Kexin-Like Protease in Mouse Pneumocystis carinii,” Gene 242:141-150 (2000), which is hereby incorporated by reference in its entirety). For colony immunoscreens and P. carinii immunofluorescence assays (IFAs), mAb 4F11 IgM ascites fluid was used at a 1:5000 dilution. For enzyme-linked immunosorbent assays (ELISA) and Western blots of purified recombinant proteins an IgG1 switch-variant of mAb 4F11(G1) (Gigliotti et al., “Passive Intranasal Monoclonal Antibody Prophylaxis Against Murine Pneumocystis carinii Pneumonia,” Infect. Immun. 70:1069-1074 (2002), which is hereby incorporated by reference in its entirety) was prepared by saturated ammonium sulfate precipitation of tissue culture supernatant and used at the indicated dilutions. MAb 2B5 is an IgG1 that recognizes a mouse P. carinii gpA (Gigliotti et al., “Antibody-Mediated Shift in the Profile of Glycoprotein A Phenotypes Observed in a Mouse Model of Pneumocystis carinii Pneumonia,” Infect. Immun. 64:1892-1899 (1996), which is hereby incorporated by reference in its entirety) and was used as a negative control in S. pneumoniae immunoblots and IFAs. MAb 1C7 is an anti-mouse P. carinii IgM used as an isotype control in IFAs against P. carinii derived from different hosts. Pooled hyperimmune sera against mouse P. carinii was obtained as described previously (Gigliotti et al., “Development of Murine Monoclonal Antibodies to Pneumocystis carinii,” J. Infect. Dis. 154:315-322 (1986), which is hereby incorporated by reference in its entirety).
# To confirm reactivity of E. coli pSCREEN transformants with mAb 4F11, 5 mL overnight cultures were pelleted and resuspended in 200 μL of 1× Laemmli SDS running/sample buffer+5% β-mercaptoethanol, and 20 μL samples were separated on NuPAGE Bis-Tris 4-12% gels (Invitrogen) by SDS-PAGE. S. pneumoniae from blood agar plates was grown in 5 mL THY overnight, 1 mL aliquots were pelleted, resuspended in 200 μL 1× sample buffer, and 20 μL were resolved by SDS-PAGE. Purified recombinant protein was suspended in sample buffer in equal concentrations and separated as described for cell lysates. Western blots were performed as previously described (Lee et al., “Molecular Characterization of KEX1, a Kexin-Like Protease in Mouse Pneumocystis carinii,” Gene 242:141-150 (2000), which is hereby incorporated by reference in its entirety).
# Production of 6×His-tagged thioredoxin fusion proteins using the pBADTHIO expression system in E. coli was performed following the manufacturer's instructions. Briefly, overnight cultures were diluted 1:40 in fresh LB+100 μg/mL ampicillin and grown at 37° C. with shaking to absorbance at 600 nm of approximately 0.5. For fusion protein induction, arabinose was added to a final concentration of 0.02% and cultures were grown an additional 5 hr at 37° C. with shaking. Cells were pelleted by centrifugation at 1000×g then resuspended in ⅕ original culture volume with lysis buffer (50 mM sodium phosphate, 6 M guanidine-HCl, 300 mM NaCl) and vortexed vigorously. Debris was pelleted by centrifugation at 10,000×g at 4° C. The supernatants were passed over a TALON affinity resin column (BD Biosciences, Palo Alto, Calif.) that had been pre-equilibrated with lysis buffer. The columns were then washed twice with 10 mL 50 mM sodium phosphate, 300 mM NaCl. The fusion proteins were eluted with 2 mL buffer containing 50 mM sodium phosphate, 300 mM NaCl, and 150 mM imidazole. The eluted protein was dialyzed overnight against PBS at 4° C. and concentrated by vacuum centrifugation. Protein concentrations were determined using a BCA microwell assay kit (Pierce, Rockford, Ill.).
# mAb 4F11(G1) [2] = test: ELISA of epitope-thioredoxin fusion constructs using mAb 4F11(G1); type: binding, mouse
# Description: (§1) Purified recombinant protein at a concentration of 10 μg/mL in 50 mM carbonate-bicarbonate buffer pH 9.5+0.1% SDS was used to coat Costar ELISA plates (Corning Incorporated, Corning, N.Y.) 16-20 hr at 37° C. The plates were blocked with 3% BSA-TBST for 1 hr at 4° C. Primary antibody was added in two-fold serial dilutions in 3% BSA-TBST and incubated at 4° C. for 1 hr. Goat anti-mouse IgG+IgM-alkaline phosphatase conjugate secondary antibody was added at 1:5000 dilution in BSA-TBST for one hr at 4° C. Blue Phos substrate (KPL, Gaithersburg Md.) was added for 30 min, color development was stopped with 2.5% EDTA, and absorbance was read at 655 nm using a Benchmark microplate reader (Bio-Rad).
# Experimental ELISA results were statistically compared to the control values using a two-tailed Student's t test. Results were considered significant if p≦0.05.
# [3] = target: 4F11(G1) binding against plate-bound sonicated mouse P. carinii; test: Competitive (inhibition) ELISA: synthetic peptides as soluble competitors for 4F11(G1) binding to plate-bound sonicated mouse P. carinii
# Source text: FIGS. 5A-F show the analysis of purified recombinant epitope-thioredoxin fusion proteins. FIG. 5A is a gel stained with Coomassie Blue. FIG. 5B is a Western blot using mAb 4F11(G1). FIG. 5C is a Western blot using anti-V5 epitope tag mAb. FIG. 5D is an ELISA of epitope-thioredoxin fusion constructs using mAb 4F11(G1). Results are plotted as the mean±standard error of triplicate experiments. […] Results are plotted as the mean±standard deviation of triplicate experiments. […] Results are plotted as the mean±standard deviation of triplicate experiments. The dashed line indicates the mean absorbance at 655 nm with no inhibitor and a 4F11(G1) dilution of 1:3200.
# (§2) Mouse P. carinii Kexin 777-787 (RPAPPKPTPQP, SEQ ID NO: 56) and Kexin 131-142 (SGDTGNVNSGEK, SEQ ID NO: 57) peptides were purchased from Alpha Diagnostics (San Antonio, Tex.). ELISA experiments using the synthetic peptides were performed as described above, using 10 μg peptide/mL in carbonate-bicarbonate buffer to coat the plates. For competitive ELISA studies peptides were incubated at three fold dilutions with a starting concentration of 100 μg/mL for 2 hr with a 1:3200 dilution of mAb 4F11 at 4° C. to reach equilibrium. Mouse P. carinii sonicates in carbonate-bicarbonate buffer were used to coat ELISA plates at the equivalence of 4×10^4 cysts per well overnight at 4° C. The peptide-antibody mixtures, or antibody alone at 1:3200 dilution, were used as the primary antibody in the ELISA following the above protocol.
# mAb 4F11(G1) [4] = test: ELISA of synthetic P. carinii peptides using mAb 4F11(G1); type: binding, mouse; settings: 10 μg peptide/mL coat, no fusion partner
# Description: as §1
# as §2, with “The peptide-antibody mixtures, or antibody alone at 1:3200 dilution, were used as the primary antibody in the ELISA following the above protocol.” left out
# [5] = test system: hyperimmune sera from mice immunized with whole P. carinii; test: Western blot of A12 fusion protein with hyperimmune sera from P. carinii-immunized mice; type: binding, mouse
# Source text: MAb 4F11 was produced as described (Lee et al., “Molecular Characterization of KEX1, a Kexin-Like Protease in Mouse Pneumocystis carinii,” Gene 242:141-150 (2000), which is hereby incorporated by reference in its entirety). For colony immunoscreens and P. carinii immunofluorescence assays (IFAs), mAb 4F11 IgM ascites fluid was used at a 1:5000 dilution. For enzyme-linked immunosorbent assays (ELISA) and Western blots of purified recombinant proteins an IgG1 switch-variant of mAb 4F11(G1) (Gigliotti et al., “Passive Intranasal Monoclonal Antibody Prophylaxis Against Murine Pneumocystis carinii Pneumonia,” Infect. Immun. 70:1069-1074 (2002), which is hereby incorporated by reference in its entirety) was prepared by saturated ammonium sulfate precipitation of tissue culture supernatant and used at the indicated dilutions. MAb 2B5 is an IgG1 that recognizes a mouse P. carinii gpA (Gigliotti et al., “Antibody-Mediated Shift in the Profile of Glycoprotein A Phenotypes Observed in a Mouse Model of Pneumocystis carinii Pneumonia,” Infect. Immun. 64:1892-1899 (1996), which is hereby incorporated by reference in its entirety) and was used as a negative control in S. pneumoniae immunoblots and IFAs. MAb 1C7 is an anti-mouse P. carinii IgM used as an isotype control in IFAs against P. carinii derived from different hosts. […]
# [6] = at lower mAb 4F11 dilutions, plate coated 10 μg/mL
molecule,measurement,setting,value
E46PRPQPTS53 (EPRPQPTS; not fully specified; printed as E46PRPQPTS53) [A1246-53],reactivity with mAb 4F11 in Western blot,mAb 4F11(G1) [1],do not react with mAb 4F11
E54PQPQPAP61 (EPQPQPAP; not fully specified; printed as E54PQPQPAP61) [A1254-61],reactivity with mAb 4F11 in Western blot,mAb 4F11(G1) [1],do not react with mAb 4F11
K62PRPQPTSKPRPQPTP77 (KPRPQPTSKPRPQPTP; not fully specified; printed as K62PRPQPTSKPRPQPTP77) [A1262-77],ELISA reactivity to mAb 4F11,mAb 4F11(G1) [2]; at 1:800 or greater dilution,only background reactivity
same,ELISA reactivity with mAb 4F11,mAb 4F11(G1) [2]; [6],"lower reactivity, but significantly higher than the thioredoxin fusion partner alone"
K70PRPQPTP77 (KPRPQPTP; not fully specified; printed as K70PRPQPTP77) [A1270-77],reactivity with mAb 4F11 in Western blot,mAb 4F11(G1) [1],positive reactivity
K856PAPKPTP863 (KPAPKPTP; not fully specified; printed as K856PAPKPTP863) [Kexin856-863],reactivity with mAb 4F11 in Western blot,mAb 4F11(G1) [1],positive reactivity
K856PAPKPTPPKPAPKPAP872 (KPAPKPTPPKPAPKPAP; not fully specified; printed as K856PAPKPTPPKPAPKPAP872) [Kexin856-872],ELISA reactivity with mAb 4F11,mAb 4F11(G1) [2]; [6],highest reactivity
K865PAPKPAP872 (KPAPKPAP; not fully specified; printed as K865PAPKPAP872) [Kexin865-872],reactivity with mAb 4F11 in Western blot,mAb 4F11(G1) [1],positive reactivity
R777PAPPKPTPQP787 [Kexin777-787],"binding with mAb 4F11 compared with Kexin856-872, based on size and intensity of the Western blot band",mAb 4F11(G1) [1]; 1 μg purified protein,enhanced binding
same,ELISA reactivity with mAb 4F11,mAb 4F11(G1) [2]; at higher mAb 4F11 dilutions,greater reactivity with mAb 4F11 than did the original 17mer epitope
same,ELISA reactivity with mAb 4F11,mAb 4F11(G1) [2]; [6],highest reactivity
same,50% inhibition of binding of mAb 4F11 to native P. carinii antigens,[3]; 4F11(G1) diluted 1:3200,150 ng/mL
same,concentration that completely blocks binding of mAb 4F11 to native P. carinii antigens,[3]; 4F11(G1) diluted 1:3200,1 µg/mL
RPAPPKPTPQP [Kex777-787],ELISA reactivity of synthetic peptide to mAb 4F11,mAb 4F11(G1) [4],high reactivity
"SGDTGNVNSGEK [Kex131-142, reference compound]",ELISA reactivity of synthetic peptide to mAb 4F11,mAb 4F11(G1) [4],did not react
same,inhibition of binding of mAb 4F11 to native P. carinii antigens,[3]; at the highest concentration tested,no inhibition
"thioredoxin fusion partner: thioredoxin fusion partner alone, negative control for the fusion constructs [reference compound]",reactivity with mAb 4F11 in Western blot,mAb 4F11(G1) [1],does not react with mAb 4F11; also recorded: did not react with mAb 4F11
same,reactivity with mAb 4F11 in Western blot,mAb 4F11(G1) [1]; listed as fusion partner,did not react with mAb 4F11
"A121-82: truncated A12 molecule, residues 1-82 of SEQ ID NO: 5, expressed as thioredoxin fusion protein (protein, thioredoxin fusion partner) TNISEPALPDKDPQPTSSPQPKPRPRPRPQPQPHPHPKPQPQPTPEPQPQPAPEPRPQPTSKPRPQPTSKPRPQPTPEPRPL",reactivity with mAb 4F11 in Western blot,mAb 4F11(G1) [1],reacted with mAb 4F11
same,reactivity with hyperimmune sera in Western blot,[5],reacted with hyperimmune sera
"URSP2 PspA: recombinant thioredoxin fusion protein containing the α-helical domain, clade defining region and proline-rich repeat region of URSP2 PspA (protein, left off: large carriers) EKELKEIDESDSEDYIKEGLRAPLQSKLDAKKAKLSKLEELSDKIDELDAEIAKLEKDVEDFKNSDGEQAEQYLVAAKKDLDAKKAELENTEADLKKAVDEPETPAPAPKPAPAPAPTPEAPAPAPKPAPAPKPAPAPAPTPEAPAPAPKPAPAPKPAPAPAPTPEAPAPAPKPAPAPRPAPAPKPAPDPKP",reactivity with mAb 4F11 in Western blot,mAb 4F11(G1) [1],shown to react with mAb 4F11
"A121-142: truncated A12 molecule, residues 1-142 of SEQ ID NO: 5, expressed as thioredoxin fusion protein (protein, thioredoxin fusion partner) TNISEPALPDKDPQPTSSPQPKPRPRPRPQPQPHPHPKPQPQPTPEPQPQPAPEPRPQPTSKPRPQPTSKPRPQPTPEPRPLPVPGPGPLPVPGPRPQPQPQPQPQPQPQPQPQPQPQPQPQPQPQPQPQPKPQPPSQSTSE",reactivity with mAb 4F11 in Western blot,mAb 4F11(G1) [1],reacted with mAb 4F11
